These results are taken from patent US9884063B2, “Amido-substituted azole compounds” (Bayer Pharma Aktiengesellschaft, priority 2014, dated 2018).

In assay [1] the test system is wildtype Wnt signaling cascade. As to the kind of experiment: HEK293 TOP Assay (Super TopFlash luciferase reporter, Wnt-3a stimulated). It is filed as cell-based. The following applies: Homo sapiens, HEK293, 16 h, HEK293 TOP reporter cell line, Wnt-3a at EC50, 16 hours incubation, compound dilution series 50 μM to 15 nM. The method, boiled down: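 Compounds (50 μM down to 15 nM, 3.16-fold steps, in CAFTY buffer pH 7.4, 2 mM Ca2+, 0.01% BSA) tested in parallel on TOP and FOP HEK293 reporter lines to define selective wildtype Wnt inhibition. Pathway driven by recombinant human Wnt-3a applied at 2500–5 ng/ml in two-fold dilutions.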
On the technique in general: A reporter such as luciferase makes a cellular process visible.

Assay [2] concerns HEK293 FOP control reporter cell line. Briefly: HEK293 FOP Assay (FOP control vector luciferase reporter). Format: cell-based. The following applies: Homo sapiens; HEK293 FOP control reporter cell line, 16 hours incubation, compound dilution series 50 μM to 15 nM. The procedure:
In a parallel approach, HEK293 cells were cotransfected with the FOP control vector and pcDNA3. The FOP vector is identical to the TOP construct, but it contains instead of functional TCF elements a randomized, non-functional sequence. For this transfection a stable transfected cell line was generated as well, based on selection with Geneticin (1 mg/ml).
In preparation of the assay, the two cell lines were plated 24 hrs before beginning the test at 10000 cells per well in a 384 micro titre plate (MTP) in 30 μl growth medium. […] The recombinant human Wnt-3a was thereby applied between 2500 and 5 ng/ml in two-fold dilution steps.
Selective inhibitory activity for small molecules on the wildtype Wnt pathway was determined after parallel incubation of both (TOP and FOP) HEK293 reporter cell lines with a compound dilution series from 50 μM to 15 nM in steps of 3.16-fold dilutions in CAFTY buffer (130 mM sodium chloride, 5 mM potassium chloride, 20 mM HEPES, 1 mM magnesium chloride, 5 mM sodium bicarbonate, pH 7.4) containing 2 mM Ca^2+ and 0.01% BSA.
The compounds were thereby serially prediluted in 100% DMSO and thereafter 50 fold into the CAFTY compound dilution buffer (described above).

As to `CNC(=O)c1nc[nH]c1C(=O)Nc1ccc(NC(=O)c2cccc(Cl)c2)cc1` [Example 325, N^5-{4-[(3-chlorobenzoyl)amino]phenyl}-N^4-methyl-1H-imidazole-4,5-dicarboxamide], the IC50 in assay [1] turned out to be 4.9 µM; in assay [2], 10 µM.
In the case of `CNC(=O)c1nc[nH]c1C(=O)Nc1ccc(NC(=O)c2cc(Cl)cc(Cl)c2)cc1` [Example 327, N^5-{4-[(3,5-dichlorobenzoyl)amino]phenyl}-N^4-methyl-1H-imidazole-4,5-dicarboxamide], the IC50 is 39.5 µM in assay [1] and 37 µM in assay [2].
For `CNC(=O)c1nc[nH]c1C(=O)Nc1ccc(NC(=O)c2cccc(Cl)c2C)cc1` [Example 341, N^5-{4-[(3-chloro-2-methylbenzoyl)amino]phenyl}-N^4-methyl-1H-imidazole-4,5-dicarboxamide] the same measures were 2.65 µM and 45 µM.
For the compound `CCN(CC)CCCC(C)NC(=O)c1nc[nH]c1C(=O)Nc1ccc(NC(=O)c2ccc(F)cc2Cl)cc1` (centres unmarked) [Example 380, N^5-{4-[(2-chloro-4-fluorobenzoyl)amino]phenyl}-N^4-[5-(diethylamino)pentan-2-yl]-1H-imidazole-4,5-dicarboxamide], the IC50 is 0.47 µM in assay [1] and 24 µM in assay [2].

Usually IC50 stands for the concentration needed to halve the response being measured.
